The text below walks through data of paper PMC11923213, “Structural characterization reveals substrate recognition by the taurine transporter TauT” (Cell Discovery, 2025).

Each structure is given as a SMILES string. Positions count from the first letter of the chain named.

Common to all, as to format: cell-based
Assay [1] addresses T1, TauT (taurine transporter, SLC6A6; TauT^WT) (Homo sapiens, UniProt P31641).
T1 construct: wild-type TauT expressed in Xenopus laevis oocytes for electrophysiology; cryo-EM sample details only in supplement
T1 sequence (P31641 1-620): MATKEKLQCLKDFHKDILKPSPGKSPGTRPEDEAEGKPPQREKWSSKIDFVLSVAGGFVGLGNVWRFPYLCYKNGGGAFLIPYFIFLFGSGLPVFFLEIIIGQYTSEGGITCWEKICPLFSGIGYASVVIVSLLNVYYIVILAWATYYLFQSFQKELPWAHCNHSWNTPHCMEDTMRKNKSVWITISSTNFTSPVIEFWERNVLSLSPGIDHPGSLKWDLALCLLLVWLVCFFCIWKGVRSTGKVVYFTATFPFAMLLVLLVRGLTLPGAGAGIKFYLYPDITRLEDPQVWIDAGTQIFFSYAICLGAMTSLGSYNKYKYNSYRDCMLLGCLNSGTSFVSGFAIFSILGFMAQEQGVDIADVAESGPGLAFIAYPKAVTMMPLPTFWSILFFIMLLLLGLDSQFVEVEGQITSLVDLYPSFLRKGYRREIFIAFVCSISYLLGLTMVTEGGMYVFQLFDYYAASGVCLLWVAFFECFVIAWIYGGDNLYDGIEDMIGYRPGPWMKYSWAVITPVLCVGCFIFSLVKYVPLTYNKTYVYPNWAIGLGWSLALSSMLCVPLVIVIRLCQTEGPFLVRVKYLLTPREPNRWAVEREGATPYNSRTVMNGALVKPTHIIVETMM
Kind of assay: two-electrode voltage clamp in Xenopus laevis oocytes, taurine-induced inward current. Background: Two-electrode voltage clamp is typically applied to oocytes expressing channels or transporters.

Assay [2] deals with T2, TauT (taurine transporter, SLC6A6) (Homo sapiens, UniProt P31641, E406T).
T2 construct: wild-type TauT expressed in Xenopus laevis oocytes for electrophysiology; cryo-EM sample details only in supplement
T2 sequence (P31641 1-620 E406T): T1 sequence (P31641 1-620) with E406T
Kind of assay: Xenopus laevis oocytes, taurine-induced inward current.

For assay [3], the target named is T1, TauT (taurine transporter, SLC6A6; TauT^WT). Kind of assay: Xenopus laevis oocytes, β-alanine-induced inward current.

On to `NCCS(=O)(=O)O` [taurine], for which the 50% effective concentration (EC50) in assay [1] was 2.9 µM; in assay [2], 50.3 µM.

Take `NCCC(=O)O` [β-alanine]: it took 5.6 µM to reach a half-maximal effect in assay [3] (EC50). That is a single-digit micromolar value.

Usually EC50 stands for the concentration that produces a half-maximal response.
